ChEMBL document CHEMBL1201862, “PubChem BioAssay data set” (2004)
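96-well plates; 48 h exposure; 5 concentrations. Endpoints by linear interpolation between flanking doses. Not reached: highest tested concentration assigned. Abbreviation: GI50, concentration required for 50% inhibition of growth.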 Activity calls are given as the source filed them. No stated cut-off is given here; in the data, active = GI50 up to about 1.1 µM and inactive = higher.

Columns and labels:
Assay in all cases: NCI anticancer screen, dose series, 48 h
A498 = test system: A498
CCRF-CEM = test system: CCRF-CEM
HCT-116 = test system: HCT-116
HCT-15 = test system: HCT-15
IGROV-1 = test system: IGROV-1
K562 = test system: K562
KM12 = test system: KM12
MDA-MB-231 = test system: MDA-MB-231
MDA-N = test system: MDA-N
NCI-H522 = test system: NCI-H522
OVCAR-3 = test system: OVCAR-3
OVCAR-5 = test system: OVCAR-5
PC-3 = test system: PC-3
SF-539 = test system: SF-539
SK-MEL-28 = test system: SK-MEL-28
SK-MEL-2 = test system: SK-MEL-2
SR = test system: SR
TK-10 = test system: TK-10
U-251 = test system: U-251
UO-31 = test system: UO-31

SMILES | GI50 (A498) | GI50 (CCRF-CEM) | GI50 (HCT-116) | GI50 (HCT-15) | GI50 (IGROV-1) | GI50 (K562) | GI50 (KM12) | GI50 (MDA-MB-231) | GI50 (MDA-N) | GI50 (NCI-H522) | GI50 (OVCAR-3) | GI50 (OVCAR-5) | GI50 (PC-3) | GI50 (SF-539) | GI50 (SK-MEL-28) | GI50 (SK-MEL-2) | GI50 (SR) | GI50 (TK-10) | GI50 (U-251) | GI50 (UO-31)
C=CC[C@H]1[C@H](O[Si](C)(C)C(C)(C)C)C=CC(=O)[C@@H]1CC(=O)OCC | 13.7 µM (inactive) | 12 µM (inactive) | 11.4 µM (inactive) | 13.5 µM | 16.4 µM (inactive) | 3.13 µM (inactive) | 13.4 µM (inactive) | 14.5 µM (inactive) | 15.7 µM (inactive) | 12.5 µM (inactive) | 13.1 µM (inactive) | 14.1 µM (inactive) | 9.59 µM (inactive) | 17.1 µM (inactive) | 17.9 µM (inactive) | 14.9 µM (inactive) | 15 µM (inactive) | 14.8 µM (inactive) | 14.6 µM (inactive) | 12.9 µM (inactive)
O=C1c2ccccc2-c2[nH]c3cn[nH]c(=O)c3c21 | 33.5 µM (inactive) | > 100 µM (inactive) | 38.6 µM (inactive) | 82.6 µM | 23.1 µM (inactive) | 61.2 µM (inactive) | > 100 µM (inactive) | 97.5 µM (inactive) | 61.4 µM (inactive) | 13.4 µM (inactive) | > 100 µM (inactive) | > 100 µM (inactive) | > 100 µM (inactive) | > 100 µM (inactive) | – | 47.2 µM (inactive) | 45 µM (inactive) | > 100 µM (inactive) | > 100 µM (inactive) | 23.8 µM (inactive)
COc1ccc(C[C@H]2NC[C@H](O)[C@H]2OC(C)=O)cc1 [ANISOMYCIN] | 0.0324 µM (active) | < 0.0122 µM (active) | < 0.015 µM (active) | 0.0326 µM | 0.0234 µM (active) | < 0.0124 µM (active) | 0.0224 µM (active) | 0.0159 µM (active) | 0.0313 µM (active) | < 0.0198 µM (active) | 0.0263 µM (active) | 0.0478 µM (active) | < 0.0191 µM (active) | 0.0213 µM (active) | 0.0239 µM (active) | 0.0287 µM (active) | < 0.0143 µM (active) | 0.0479 µM (active) | 0.0309 µM (active) | 0.0404 µM (active)
C=C(C(=O)OC)[C@@H]1C[C@@H](OC(C)=O)C2=C[C@H](C[C@@]3(C)O[C@@H]3C3=CC(C)=C(O3)[C@H]1OC(C)=O)OC2=O [BIPINNATIN I] | 16.9 µM (inactive) | 0.0429 µM (active) | 10.4 µM (inactive) | 17.5 µM | 15.3 µM (inactive) | 6.84 µM (inactive) | 19.8 µM (inactive) | 20.9 µM (inactive) | 19.4 µM (inactive) | 2.59 µM (inactive) | – | 17.9 µM (inactive) | 25.2 µM (inactive) | 31.4 µM (inactive) | 16.2 µM (inactive) | 31 µM (inactive) | 9.38 µM (inactive) | 16 µM (inactive) | 23.1 µM (inactive) | 16 µM (inactive)
COc1c(Br)cc2c(c1OC)C(Br)CCC(Br)(Br)C2=O (stereo not given) | 3.32 µM (inactive) | – | 0.273 µM (active) | 0.314 µM | 0.482 µM (active) | 0.377 µM (active) | 3.72 µM (inactive) | 3.1 µM (inactive) | 0.242 µM (active) | 0.393 µM (active) | 1.14 µM (inactive) | 4.92 µM (inactive) | 1.44 µM (inactive) | 1.85 µM (inactive) | 2.5 µM (inactive) | 1.1 µM (active) | 0.0368 µM (active) | 3.17 µM (inactive) | 2.18 µM (inactive) | 1.37 µM (inactive)
C[n+]1c(-c2ccc(/C=N\NC(=O)c3ccc(C(=O)N/N=C/c4ccc(-c5cn6ccsc6[n+]5C)cc4)cc3)cc2)cn2ccsc21 | 17.3 µM (inactive) | 25.4 µM (inactive) | – | 16 µM | 20 µM (inactive) | 14 µM (inactive) | 23 µM (inactive) | 21.4 µM (inactive) | 32.8 µM (inactive) | 31.1 µM (inactive) | 11.6 µM (inactive) | 17.3 µM (inactive) | 17.4 µM (inactive) | 23.6 µM (inactive) | – | 30.8 µM (inactive) | 17.3 µM (inactive) | 19.9 µM (inactive) | 25.6 µM (inactive) | 15.2 µM (inactive)
